Assay results published in US9814714B2, “Kinase modulation, and indications therefor” (Plexxikon Inc., priority 2015, dated 2017).

Assays:
BRAF_V600G = BRAF_V600G (Homo sapiens, UniProt P15056, V600G); test: RAF kinase biochemical assay, BRAF V600G; details: Table 3; ATP 100 μM
Procedure: BRAF proteins were produced in insect cells at Plexxikon Inc. as N-terminally His-tagged fragments encompassing the kinase domain.
1) Test compounds in DMSO were serially diluted and plated into 384-well assay plates at 1 μL/well.
2) Added were 15 μL/well of RAF enzyme and biotinylated-MEK1 substrate in kinase buffer.
3) Added were 4 μL of ATP (500 μM) in kinase buffer.
5) After a brief spin down, the plate was incubated at about room temperature for 40-50 minutes. 6) Added was 5 μL of Stop buffer at final EDTA 20 mM; anti-phospho-MEK1 1:2,500; donor/acceptor beads 3 μg/mL. 7) After brief spin down, the plate was incubated at room temperature for about 3 hours. 8) The plate was read on the Envision multilabel plate reader (Perkin Elmer). […] 2. Results

[1] = test system: BRAF-V600E in SK-MEL-239 parental cells; test: ERK/MEK phosphorylation and growth assays, SK-MEL-239 parental; format: cell-based
[2] = test system: pERK in A431 cells (over-expression of EGFR); test: pERK levels in A431; format: cell-based; details: human SCC cell line
Procedure: The compound of Formula II was also evaluated in the human SCC cell line A431 and the human breast adenocarcinoma cell line SKBR3 as these cells achieve MAPK pathway activation by upstream signals feeding into RAS (through over-expression of EGFR and HER2, respectively).
Phospho-ERK AlphaScreen® assay: The degree of ERK phosphorylation was determined using an AlphaScreen® assay where an increase in ERK1/2 phosphorylation at Thr202/Tyr204 brought the donor and acceptor AlphaScreen® beads into close proximity, generating a signal for quantification. To determine the effects of compound treatment on phosphorylation of ERK1/2, cells were plated in a 96-well plate and treated with an 8-point titration of compound for one hour at 37° C. before lysis. To detect pERK, cell lysates were incubated with streptavidin-coated AlphaScreen® donor beads, anti-mouse IgG AlphaScreen® acceptor beads, a biotinylated anti-ERK1/2 rabbit antibody, and a mouse antibody that recognizes ERK1/2 only when it is phosphorylated on Thr202 and Tyr204. […] An increase in ERK1/2 phosphorylation at Thr202/Tyr204 brings the donor and acceptor AlphaScreen® beads into close proximity, generating a signal that can be quantified on an EnVision reader (Perkin Elmer).
Phospho-ERK immunoblot analysis: Western blots were performed by standard techniques and analyzed on an Odyssey Infrared Scanner (Li-COR Biosciences). […]

BRAF_V600G, sequence (P15056 432-726 V600G): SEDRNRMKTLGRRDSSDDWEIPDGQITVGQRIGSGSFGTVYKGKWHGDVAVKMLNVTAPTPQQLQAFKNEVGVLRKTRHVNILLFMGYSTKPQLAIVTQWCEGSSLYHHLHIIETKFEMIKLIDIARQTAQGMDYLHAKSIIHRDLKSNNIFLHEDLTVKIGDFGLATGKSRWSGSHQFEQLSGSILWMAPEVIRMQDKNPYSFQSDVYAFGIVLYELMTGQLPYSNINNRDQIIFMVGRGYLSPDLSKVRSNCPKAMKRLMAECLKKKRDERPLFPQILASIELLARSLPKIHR

O=C(c1c(F)ccc(NS(=O)(=O)N2CC[C@@H](F)C2)c1F)c1c[nH]c2ncc(-c3cnc(C4CC4)nc3)cc12 [Formula I, (3R)—N-[3-[5-(2-cyclopropylpyrimidin-5-yl)-1H-pyrrolo[2,3-b]pyridine-3-carbonyl]-2,4-difluorophenyl]-3-fluoropyrrolidine-1-sulfonamide]
IC50 (BRAF_V600G): 6.3 nM
Inhibition of BRAF-V600E in SK-MEL-239 parental (in words) [1]: potent inhibitor

CCN(C)S(=O)(=O)Nc1ccc(F)c(C(=O)c2c[nH]c3ncc(-c4cnc(C5CC5)nc4)cc23)c1F [Formula II, 5-(2-cyclopropylpyrimidin-5-yl)-3-[3-[[ethyl(methyl)sulfamoyl]amino]-2,6-difluoro-benzoyl]-1H-pyrrolo[2,3-b]pyridine]
Change of pERK levels in A431 (in words) [2]: did not increase pERK levels
